Consider eleven compounds from patent US20250325552A1, “SUBSTITUTED THIADIAZOLYL DERIVATIVES AS DNA POLYMERASE THETA INHIBITORS” (IDEAYA Biosciences, Inc., priority 2020, published 2025).

The target of this test is Polθ theta (1-899) (hPolQ) (Homo sapiens (Human), UniProt O75417). The experiment in a line: Biological Assay 1: Polθ ATPase activity, NADH oxidation-coupled enzymatic assay (10 nM enzyme, 30 min). It counts as biochemical. Particulars: Polθ (1-899) 10 nM, 100 μM ATP, 300 nM dT50 ssDNA; Examples 1 to 268; read-out: ATPase NADH coupling:Standard Screening:hPolQ IC50. In short, it runs like this:
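ATP turnover was coupled to NADH oxidation and followed at 340 nm every minute for 30 min. Enzyme (residues 1-899, 10 nM) sat with compound for 15 min at room temperature before an equal-volume addition of 100 μM ATP plus 300 nM dT50 ssDNA. Progress-curve slopes from 10-point dilutions were fitted by a four-parameter model.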

pIC50: −log10 of the molar value.

Sequence of Polθ theta (1-899) (hPolQ) (O75417 1-899): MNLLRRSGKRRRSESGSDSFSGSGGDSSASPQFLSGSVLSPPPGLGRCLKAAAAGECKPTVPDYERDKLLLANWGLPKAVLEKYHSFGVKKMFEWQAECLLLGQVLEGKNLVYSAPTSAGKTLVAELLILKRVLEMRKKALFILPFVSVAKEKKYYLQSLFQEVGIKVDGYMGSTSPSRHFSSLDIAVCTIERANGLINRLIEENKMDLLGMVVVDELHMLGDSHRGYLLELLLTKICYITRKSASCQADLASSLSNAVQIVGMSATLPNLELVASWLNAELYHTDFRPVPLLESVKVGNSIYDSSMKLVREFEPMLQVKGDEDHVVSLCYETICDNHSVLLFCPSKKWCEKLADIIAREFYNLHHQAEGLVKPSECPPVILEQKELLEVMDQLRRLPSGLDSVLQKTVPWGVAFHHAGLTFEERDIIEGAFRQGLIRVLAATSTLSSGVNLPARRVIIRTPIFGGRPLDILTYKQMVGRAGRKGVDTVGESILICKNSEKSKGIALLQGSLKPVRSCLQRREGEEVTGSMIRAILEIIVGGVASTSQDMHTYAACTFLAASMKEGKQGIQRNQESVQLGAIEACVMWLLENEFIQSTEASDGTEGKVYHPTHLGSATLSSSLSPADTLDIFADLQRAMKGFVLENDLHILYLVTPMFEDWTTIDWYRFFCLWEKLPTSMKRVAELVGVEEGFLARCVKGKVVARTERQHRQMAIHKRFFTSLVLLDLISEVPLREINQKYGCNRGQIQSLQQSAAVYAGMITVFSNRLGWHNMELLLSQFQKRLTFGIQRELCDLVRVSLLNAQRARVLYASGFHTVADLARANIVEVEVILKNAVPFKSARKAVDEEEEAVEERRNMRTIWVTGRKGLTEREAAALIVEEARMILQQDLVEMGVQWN

As usually defined, the pIC50 is the IC50 on a negative log10 scale, so that one unit is a factor of ten. For the compound `COc1cnc(Cl)cc1-c1cc(C)ncc1C(=O)Nc1nnc(OCC2CC3(CC(O)C3)C2)s1` (centres unmarked) [Example 138, 2′-chloro-N-(5-((6-hydroxyspiro[3.3]heptan-2-yl)methoxy)-1,3,4-thiadiazol-2-yl)-5′-methoxy-6-methyl-[4,4′-bipyridine]-3-carboxamide], the pIC50 is no less than 6.70.

With `COc1cnc(C)cc1-c1cc(C)ncc1C(=O)Nc1nnc(OCC2CC3(CC(O)C3)C2)s1` (centres unmarked) [Example 139, N-(5-((6-hydroxyspiro[3.3]heptan-2-yl)methoxy)-1,3,4-thiadiazol-2-yl)-5′-methoxy-2′,6-dimethyl-[4,4′-bipyridine]-3-carboxamide], the pIC50 is no less than 6.70.

On to `COc1cccc(F)c1-c1cc(C)ncc1C(=O)Nc1nnc(OCc2ccc(C3(C)COC3)cn2)s1` [Example 140, 4-(2-fluoro-6-methoxyphenyl)-6-methyl-N-(5-((5-(3-methyloxetan-3-yl)pyridin-2-yl)methoxy)-1,3,4-thiadiazol-2-yl)nicotinamide], for which the pIC50 was no less than 6.70.

Turning to `COc1cccc(F)c1-c1cc(C)ncc1C(=O)Nc1nnc(OCC2CC3(CC(O)C3)C2)s1` (centres unmarked) [Example 141, 4-(2-fluoro-6-methoxyphenyl)-N-(5-((6-hydroxyspiro(3.3)heptan-2-yl)methoxy)-1,3,4-thiadiazol-2-yl)-6-methylpyridine-3-carboxamide], the pIC50 is no less than 6.70.

For the compound `COc1ccc(Cl)cc1-c1cnncc1C(=O)Nc1nnc(OCC23CCC(F)(CC2)CC3)s1` [Example 142, 5-(5-chloro-2-methoxyphenyl)-N-(5-((4-fluorobicyclo(2.2.2)octan-1-yl)methoxy)-1,3,4-thiadiazol-2-yl)pyridazine-4-carboxamide], the pIC50 is no less than 6.70.

Regarding `COc1cnc(Cl)cc1-c1cc(C)ncc1C(=O)Nc1nnc(OCC23CC(C(C)(C)O)(C2)C3)s1` [Example 143, 2′-chloro-N-(5-((3-(2-hydroxypropan-2-yl)bicyclo(1.1.1)pentan-1-yl)methoxy)-1,3,4-thiadiazol-2-yl)-5′-methoxy-6-methyl-(4,4′-bipyridine)-3-carboxamide], the pIC50 is no less than 6.70.

Turning to `CN=[S@](C)(=O)c1ccc(COc2nnc(NC(=O)c3cnc(C)cc3-c3cc(Cl)ccc3OC)s2)nc1` [Example 144, (R)-4-(5-chloro-2-methoxyphenyl)-N-(5-((5-(N,S-dimethylsulfonimidoyl)pyridin-2-yl)methoxy)-1,3,4-thiadiazol-2-yl)-6-methylnicotinamide], the pIC50 is no less than 6.70.

Turning to `COc1cnc(Cl)cc1-c1cc(C)ncc1C(=O)Nc1nnc(OCc2cnc(CO)cn2)s1` [Example 145, 2′-chloro-N-(5-((5-(hydroxymethyl)pyrazin-2-yl)methoxy)-1,3,4-thiadiazol-2-yl)-5′-methoxy-6-methyl-(4,4′-bipyridine)-3-carboxamide], the pIC50 is no less than 6.70.

As for `COc1cnc(C)cc1-c1cc(C)ncc1C(=O)Nc1nnc(OCc2cnc(CO)cn2)s1` [Example 146, N-(5-((5-(hydroxymethyl)pyrazin-2-yl)methoxy)-1,3,4-thiadiazol-2-yl)-5′-methoxy-2′,6-dimethyl-[4,4′-bipyridine]-3-carboxamide], the pIC50 was no less than 6.70.

For the compound `COc1ccc(Cl)cc1-c1cc(C)ncc1C(=O)Nc1nnc(OCc2ccc([S@](C)(=N)=O)cn2)s1` [Example 147, (R)-4-(5-chloro-2-methoxyphenyl)-6-methyl-N-(5-((5-(S-methylsulfonimidoyl)pyridin-2-yl)methoxy)-1,3,4-thiadiazol-2-yl)nicotinamide], the pIC50 is no less than 6.70.

As to `COc1ccc(Cl)cc1-c1cc(C)ncc1C(=O)Nc1nnc(OCc2ccc([S@@](C)(=N)=O)cn2)s1` [Example 148, (S)-4-(5-chloro-2-methoxyphenyl)-6-methyl-N-(5-((5-(S-methylsulfonimidoyl)pyridin-2-yl)methoxy)-1,3,4-thiadiazol-2-yl)nicotinamide], the pIC50 was no less than 6.70.
